# Assay results published in patent US20130178517A1, “Methods And Compositions For Treatment Of Lipogenic Virus Related Conditions” (priority 2010, published 2013).
# Entries after “also recorded” stand apart in the source; their conditions may differ.
# Assays:
# Ad-36 in preadipocytes = settings: preadipocytes in tissue culture; cited from earlier work
# [1] = test system: FAS protein in MCF-7 cells infected with Ad-36; experiment: FAS protein expression (Western blot) in MCF-7 cells infected with Ad-36; assay type: cell-based, human; settings: Ad-36-infected MCF-7 cells; for FAS protein expression: vs infected untreated control; for amount of FAS protein: range of 10 uM/L to 100 uM/L (FIG. 8)
# Method: MCF-7 cells were incubated with Adv36 and a range of 10 uM/L to 100 uM/L of Didox or Tridox.
# Human breast cancer cells (MCF-7) were infected with Ad-36 virus and treated with antiviral compounds Didox or Tridox. MCF-7 cells were incubated with Ad-36 and a range of about 10 μM/L to about 100 μM/L of Didox or Tridox. The control for the experiments was MCF-7 cells infected with Ad-36 that were not treated with an antiviral compound. Fifty micrograms of protein was loaded per lane on an SDS-PAGE gel, followed by Western blot analysis detecting FAS.
# [2] = test system: FAS protein in 3T3-L1 cells; experiment: FAS protein expression (Western blot) in 3T3-L1 preadipocyte cells with MDI and Ad-36; assay type: cell-based, mouse; settings: for FAS protein as dosage is increased: 3T3-L1 preadipocyte cells (FIG. 9 as described)
# Method: The effects of Tridox on FAS protein expression were evaluated in 3T3-L preadipocyte cells. Control cells were maintained without exposure to Ad-36 or to the differentiation cocktail of methyl-isobutyl-xanthine, dexamethasone, and insulin (MDI). See, e.g., Ntambi and CheulKim, J. Nutrition, 120: […] for description of MDI differentiation cocktail.
# Ad-36 [3] = experiment: Replication of Ad-36 in A549 cells assessed by cytopathic effect (CPE); assay type: cell-based, human adenovirus 36 in human A549 cells; settings: multiple different doses, 100 TCID/well, CPE 3 and 4 days post-infection
# Method: A549 cells were infected with a fixed amount of Ad-36 (100 TCID/well) for 2 hours, then media containing the virus was removed, replaced with serial dilutions of metformin, luteolin, or a combination. Cytopathic effect (CPE) was evaluated 3 days and 4 days post-infection (PI). Each condition had 8 wells. The efficacy of the different drug treatments was evaluated by determining whether there were fewer wells with CPE as compared to the control condition for the different treatment conditions, which reflected the degree to which a particular treatment was working to inhibit the virus.
# [4] = test system: phosphorylated Akt in MCF-10A cells; experiment: Akt phosphorylation (Western blot) in MCF-10A cells with or without Ad-36 infection; assay type: cell-based, human
# Method: MCF-10A cells were infected with Ad-36 and treated with luteolin and/or metformin, then Akt phosphorylation was measured using Western blot. The top band is phosphorylated Akt. […] Lane 2 is MCF-10A cells infected with Ad-36 virus. Lane 3 is metformin, MCF-10A cells infected with Ad-36 virus. Lane 4 is uninfected MCF-10A cells treated with metformin. Lane 5 is MCF-10A cells infected with Ad-36 virus and treated with luteolin. Lane 6 is uninfected MCF-10A cells treated with luteolin. Lane 7 is MCF-10A cells infected with Ad-36 and treated with a combination of metformin and luteolin. Lane 8 is uninfected MCF-10A cells treated with a combination of metformin and luteolin.
# Ad-36 [5] = experiment: TCID50 of A549 cells exposed to Ad-36; assay type: cell-based, human adenovirus 36 in human A549 cells
# Method: “TCID50” refers to 50% tissue culture infective dose (TCID50), an endpoint dilution assay that quantifies the amount of virus required to kill 50% of infected hosts or to produce a cytopathic effect in 50% of inoculated tissue culture cells.
# The experimental conditions were assessed: (A) Control condition in which cells were infected with the virus throughout incubation, no luteolin added; (B) Cells and virus were both pretreated with luteolin, then the cells were incubated with both the virus and luteolin; and (C) Cells pretreated with luteolin only, luteolin removed, then cells incubated with virus but without luteolin. The TCID50 value was calculated for each group.
# [6] = test system: MCF-10A cells infected with Ad-36; experiment: Growth rate (cell count) of MCF-10A cells infected with Ad-36; assay type: cell-based, human; settings: 5 μM
# Method: FIG. 11 is a graph showing that luteolin reduces the growth rate of MCF-10A cells infected with Ad-36. […] Over a time course, cells were trypsinized and counted using a hemocytometer. As illustrated, ⋄ refers to mock infected cells incubated without luteolin; □ refers to mock infected cells treated with luteolin; Δ refers to Ad-36-infected cells incubated without luteolin; and × refers to Ad-36-infected cells treated with luteolin.
# Luteolin reduces the growth rate of […] (MCF-10A) that have been infected with Ad-36 in tissue culture (FIG. 11). MCF-10A cells were infected with a multiplicity of infection (MOI) of 0.5 at day 0 for 2 hours, then replaced with fresh medium containing 5 μM luteolin or vehicle. At each time period, cells were trypsinzed and counted using a hemocytometer. Fresh luteolin (5 μM) was added on day 0 (after infection), day 3 and day 5 in order to insure a constant concentration of agent. […] The cells infected with Ad-36 and not exposed to luteolin had the highest growth rate, faster than cells without Ad-36. When luteolin is added, cell growth is slowed.
# [7] = MCF-10A cells infected with Ad-36 and treated
# [8] = uninfected MCF-10A cells treated
Compound,FAS protein expression ([1]; about 50 μM),FAS protein expression ([1]; about 100 μM),amount of FAS protein [1],FAS protein as dosage is increased [2],"effect of Ad-36 on A549 cells (CPE, replication) (Ad-36 [3])","Akt phosphorylation [4, 7]","Akt phosphorylation [4, 8]",other results
Nc1ccn(C[C@@H](CO)OCP(=O)(O)O)c(=O)n1 [Cidofovir],,,,,,,,lipogenic effect of Ad-36 (Ad-36 in preadipocytes): block the lipogenic effect
"O=C(NO)c1ccc(O)c(O)c1 [Didox, 3,4 dihydrobezohydoxamic acid]",decrease,decrease,decreased,decreased,,,,
"NC(=NO)c1cc(O)c(O)c(O)c1 [Tridox, 3,4,5 trihydroxybenzamidoxime]",decrease,decrease,decreased,decreased,,,,"FAS protein expression ([1]; about 10 μM): decrease; infection with Ad-36 (conclusion from FAS data) ([2]; 3T3-L1 cells): inhibits infection with Ad-36; FAS protein levels ([2]; 3T3-L1 cells exposed to Ad-36 in media containing 10 μM): even lower; FAS expression ([2]; 3T3-L1 cells infected with Ad-36, then incubated with MDI and 10 μM): modest decrease; FAS expression ([2]; 3T3-L1 cells pretreated with compound, then incubated with MDI and Ad-36): more marked decrease; also recorded: greater decrease"
O=c1cc(-c2ccc(O)c(O)c2)oc2cc(O)cc(O)c12 [luteolin],,,,,inhibits,marked reduction,stimulated,"virulence of Ad-36 infection / Ad-36 infection (Ad-36 [5]; A549 cells, overall conclusion): blocks virulence; also recorded: inhibits Ad-36 infection; TCID50 value (Ad-36 [5]; Group B: cells and virus pretreated with luteolin, then cells incubated with virus and luteolin, vs control): slightly higher than control; TCID50 value (Ad-36 [5]; Group C: cells pretreated with luteolin only, luteolin removed, then incubated with virus): lowest and low; TCID value (Ad-36 [5]; second experiment (not shown), same condition as Group B, vs control): increased almost twice as much as the control value; growth rate (cell number) ([6]; Ad-36-infected (MOI 0.5) MCF-10A cells): slowest growth rate; also recorded: slow growth rate; cell growth when compound is added ([6]; MCF-10A cells): slowed"
CN(C)C(=N)N=C(N)N [metformin],,,,,inhibits,marked reduction,stimulated,
